AC26 data for 20 compounds are collected here from PubChem BioAssay AID624491 (Broad Institute, 2012).

The test system of this experiment is D54 ERlucT glycosylation luciferase reporter, luminescence, 24 h. Kind of experiment: N-linked glycosylation inhibitors, luciferase reporter, dose response, D54 ERlucT cells, luminescence, cherry-picks (AID 624491).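 Also: signal gain reflects blocked N-linked glycosylation of a luciferase reporter; actives raise luciferase signal so AC26 marks activators of the reporter.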

In the case of `CN(C)S(=O)(=O)c1ccc(N2CCCC2)c(C(=O)Nc2cccc(F)c2)c1`, the AC26 is 0.931 µM. Consider `O=C(O)c1ccc(N/N=C/c2ccc(-c3ccc(Cl)cc3Cl)o2)cc1`, for which the AC26 is 5.33 µM.

Consider `COc1cc2c(cc1OC)C(c1ccccc1)N(C(=O)c1ccccc1)CC2` (stereo not given), for which the AC26 is 0.869 µM. For `COc1cccc(-c2cc3nc(-c4ccccc4)cc(=O)n3[nH]2)c1`, the AC26 was 7.07 µM.

As for `O=C(N/N=C/c1cccc(C(F)(F)F)c1)C1CCN(c2ncc(C(F)(F)F)cc2Cl)CC1`, the AC26 is 5.89 µM. Under `Cc1cc(NC(=O)NC(=O)c2ccccc2NC(=O)C(C)N)ccc1Oc1ncc(Br)cn1` (stereo not given) stands 1.06 µM; under `COc1ccc(C2=NOC(C(=O)NCc3ccc(F)cc3)C2)cc1` (stereo not given), 0.516 µM; under `Nc1nc(=S)c2ncn(C3OC(CO)C(O)C3O)c2[nH]1` (stereo not given), 4.98 µM. Turning to `CCOC(=O)c1ccccc1NS(=O)(=O)c1ccc(OC)cc1`, the AC26 was 16 µM. For the compound `COc1ccc(/C=N/NC(=O)c2sccc2OCc2ccc(F)cc2)cc1OC`, the AC26 is 1.31 µM.

As to `COc1ccccc1C(=O)Nc1ccc2c(c1)nc(CCNC(=O)c1ccco1)n2C`, the AC26 was 1.55 µM. For `Cc1cc(-c2nnc3n2N=C(c2ccc(-c4ccccc4)cc2)CS3)n[nH]1`, the AC26 is 2.76 µM. For the compound `COC(=O)c1cc(=O)n(-c2ccccc2)c(=Nc2ccccc2)s1`, the AC26 was 10.8 µM. Turning to `C[C@@H]1[C@@H](Sc2ccccc2)CC(=O)O[C@@H]1c1ccc(-c2ccccc2)cc1`, the AC26 is 0.92 µM. For `COc1ccc(C)cc1NC(=O)CCCNC(=O)Cn1cnc2sc(C)c(C)c2c1=O`, the AC26 was 7.09 µM. Take `COc1cc(C(=O)N/N=C/c2ccc3c(c2)c2ccccc2n3C)ccc1O`: the AC26 is 4.07 µM. The same measure for `O=C(C[C@@H]1C/C=C/CC[C@H](Cc2ccc(F)cc2)C(=O)OC[C@@H](Cc2ccccc2)NC1=O)N[C@H](CO)Cc1ccccc1`: 4.88 µM; for `C=C1c2nc3ccccc3n2C=C(c2ccc(C)cc2)N1c1ccccc1`: 9.58 µM; for `O=C(OCn1ncc(Cl)c(Cl)c1=O)c1ccc(C(F)(F)F)cc1`: 1.13 µM.

As for `COc1ccc(Nc2cc(C)nc3ccc(OC)cc23)cc1`, the AC26 was 1.83 µM.
